# ChEMBL document CHEMBL5724696, “Autophagy assay results for EUbOPEN Chemogenomics Library” (2024)
# Assays:
# Assay type in all cases: functional, Homo sapiens
# [1] = tested on: U2OS; assay: (§1) Here: values are normalized to the negative (DMSO; defined as 0% autophagy induction) and positive (250nM Torin1; mTOR inhibitor; defined as maximal inducer of autophagy = 100%) control compounds and represented as % of autophagy induction. […] The impact of autophagy induction on cells is complex and depends on the affected target. As such, the magnitude of a phenotype may not be equally mirrored in the %-value of autophagy induction and vice versa. The dynamics of the induction may indicate the mode of activation: e.g. activation via phosphorylation or a signaling cascade may occur fast, while activation via transcription factors may take considerably longer. […] Of note, treatment concentrations may be sub-optimal for specific compounds, leading to false negative annotations.; conditions: Culturing Media DMEM, 1 % Penicillin/Streptomycin, 10% Fetal bovin serum Add-On: No, Screening Media Control DMEM, Screening Media Samples DMEM
# [2] = tested on: TERT-RPE1; assay: as §1; conditions: Culturing Media DMEM/F12 (1:1), 1 % Penicillin/Streptomycin, 10% Fetal bovin serum Add-On: No, Screening Media Control DMEM/F12 (1:1), Screening Media Samples DMEM/F12 (1:1)
# [3] = tested on: U2OS; assay: as §1; conditions: Culturing Media DMEM, 1 % Penicillin/Streptomycin, 10% Fetal bovin serum Add-On: No, Screening Media Control DMEM, Screening Media Samples DMEM; remark: listed apart in the source
# [4] = Compound Concentration 0.5 uM, Timepoint 12 hours
# [5] = Compound Concentration 0.5 uM, Timepoint 24 hours
# [6] = Compound Concentration 0.5 uM, Timepoint 36 hours
# [7] = Compound Concentration 0.5 uM, Timepoint 60 hours
# [8] = Compound Concentration 2 uM, Timepoint 12 hours
# [9] = Compound Concentration 2 uM, Timepoint 24 hours
# [10] = Compound Concentration 2 uM, Timepoint 36 hours
# [11] = Compound Concentration 2 uM, Timepoint 60 hours
# [12] = Compound Concentration 10 uM, Timepoint 12 hours
# [13] = Compound Concentration 10 uM, Timepoint 24 hours
# [14] = Compound Concentration 10 uM, Timepoint 36 hours
# [15] = Compound Concentration 10 uM, Timepoint 60 hours
Compound,"autophagy induction [1, 4] [%]","autophagy induction [1, 5] [%]","autophagy induction [1, 6] [%]","autophagy induction [1, 7] [%]","autophagy induction [1, 8] [%]","autophagy induction [1, 9] [%]","autophagy induction [1, 10] [%]","autophagy induction [1, 11] [%]","autophagy induction [1, 12] [%]","autophagy induction [1, 13] [%]","autophagy induction [1, 14] [%]","autophagy induction [1, 15] [%]","autophagy induction [2, 4] [%]","autophagy induction [2, 5] [%]","autophagy induction [2, 6] [%]","autophagy induction [2, 7] [%]","autophagy induction [2, 8] [%]","autophagy induction [2, 9] [%]","autophagy induction [2, 10] [%]","autophagy induction [2, 11] [%]",other results
O=C(Nc1ccc(Cl)cc1)Nc1cccc(-c2cccc(N3CCCC3)n2)c1,17.3616,17.7757,11.2699,1.747,20.6353,15.806,8.553,8.133,-2.269,13.0876,22.7984,31.1337,-4.744,-3.44,1.901,11.3473,-2.257,-2.102,-2.6063,-0.1832,"autophagy induction [2, 12]: -0.5349%; autophagy induction [2, 13]: 20.6675%; autophagy induction [2, 14]: 44.4615%; autophagy induction [2, 15]: 64.0305%; autophagy induction [3, 4]: 3.433%; autophagy induction [3, 5]: -0.7352%; autophagy induction [3, 6]: -0.9133%; autophagy induction [3, 7]: -1.608%; autophagy induction [3, 8]: -0.4509%; autophagy induction [3, 9]: -1.587%; autophagy induction [3, 10]: -2.698%; autophagy induction [3, 11]: -2.799%; autophagy induction [3, 12]: -2.177%; autophagy induction [3, 13]: -0.7353%; autophagy induction [3, 14]: -4.281%; autophagy induction [3, 15]: 0.461%"
CNc1nc(NCc2ccc(NS(C)(=O)=O)cc2Cl)cc(-c2ccccn2)n1,14.6542,1.484,3.538,8.159,23.6541,10.7985,11.9727,23.1222,27.3974,31.2749,36.9575,46.6456,-1.3719,-4.63,-8.2685,-4.377,1.95,-3.372,-5.053,1.232,"autophagy induction [2, 12]: 14.7912%; autophagy induction [2, 13]: 21.0269%; autophagy induction [2, 14]: 30.7963%; autophagy induction [2, 15]: 56.217%; autophagy induction [3, 4]: -4.8332%; autophagy induction [3, 5]: -1.906%; autophagy induction [3, 6]: -1.0253%; autophagy induction [3, 7]: -0.2766%; autophagy induction [3, 8]: -0.6465%; autophagy induction [3, 9]: 0.2341%; autophagy induction [3, 10]: -0.0484%; autophagy induction [3, 11]: 0.9042%; autophagy induction [3, 12]: -8.81%; autophagy induction [3, 13]: -3.343%; autophagy induction [3, 14]: -3.38%; autophagy induction [3, 15]: -6.97%"
Cc1c(C2=CCN(C(=O)N(C)C(C)C)CC2)nnn1-c1cccnc1F,23.3711,12.0378,26.6789,23.6658,-5.386,-5.642,-9.747,-4.534,-2.977,0.8858,-1.59,4.327,-7.351,-10.2554,-12.7414,-13.7381,-4.799,-6.124,-8.583,-9.595,"autophagy induction [2, 12]: -1.3221%; autophagy induction [2, 13]: -2.795%; autophagy induction [2, 14]: -0.6234%; autophagy induction [2, 15]: 3.817%; autophagy induction [3, 4]: 2.838%; autophagy induction [3, 5]: 0.05909%; autophagy induction [3, 6]: -0.5317%; autophagy induction [3, 7]: -0.9964%; autophagy induction [3, 8]: -1.633%; autophagy induction [3, 9]: -1.565%; autophagy induction [3, 10]: -0.7182%; autophagy induction [3, 11]: -1.565%; autophagy induction [3, 12]: 1.202%; autophagy induction [3, 13]: 0.8484%; autophagy induction [3, 14]: 0.458%; autophagy induction [3, 15]: -1.904%"
Cc1cc(C)cc(C(=O)N(C)[C@H](Cc2ccc(-c3ccccc3)cc2)C(=O)N[C@@H](Cc2c[nH]c3ccccc23)C(=O)O)c1,20.0451,13.0827,8.17,4.398,5.392,1.718,-3.298,-11.258,17.6344,16.7447,13.7232,11.2064,-14.7352,-10.2057,-9.628,-6.49,-8.48,-8.155,-8.294,-6.276,"autophagy induction [2, 12]: -5.809%; autophagy induction [2, 13]: -2.795%; autophagy induction [2, 14]: -2.603%; autophagy induction [2, 15]: -5.126%; autophagy induction [3, 4]: -3.328%; autophagy induction [3, 5]: -1.823%; autophagy induction [3, 6]: -2.116%; autophagy induction [3, 7]: -0.69%; autophagy induction [3, 8]: 4.263%; autophagy induction [3, 9]: 2.513%; autophagy induction [3, 10]: -0.01148%; autophagy induction [3, 11]: -0.5825%; autophagy induction [3, 12]: 3.263%; autophagy induction [3, 13]: 3.281%; autophagy induction [3, 14]: 1.189%; autophagy induction [3, 15]: 0.3614%"
